Measured values from ChEMBL document CHEMBL1201862, “PubChem BioAssay data set” (2004).
Calls of active or inactive are those of the source. Rule as the data show it, for most assays here: actives have a measured IC50 and inactives only a lower limit.

Experiments:
[1] = molecular target: T1, High affinity choline transporter 1 (Homo sapiens, UniProt Q9GZV3); assay: human choline transporter blockers, potency – cell-based, 10-point CRC, membrane potential dye, dose response (AID 588401); assay type: functional;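 also: membrane potential dye fluorescence of choline-evoked depolarization via CHT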
T1 sequence (Q9GZV3 whole entry): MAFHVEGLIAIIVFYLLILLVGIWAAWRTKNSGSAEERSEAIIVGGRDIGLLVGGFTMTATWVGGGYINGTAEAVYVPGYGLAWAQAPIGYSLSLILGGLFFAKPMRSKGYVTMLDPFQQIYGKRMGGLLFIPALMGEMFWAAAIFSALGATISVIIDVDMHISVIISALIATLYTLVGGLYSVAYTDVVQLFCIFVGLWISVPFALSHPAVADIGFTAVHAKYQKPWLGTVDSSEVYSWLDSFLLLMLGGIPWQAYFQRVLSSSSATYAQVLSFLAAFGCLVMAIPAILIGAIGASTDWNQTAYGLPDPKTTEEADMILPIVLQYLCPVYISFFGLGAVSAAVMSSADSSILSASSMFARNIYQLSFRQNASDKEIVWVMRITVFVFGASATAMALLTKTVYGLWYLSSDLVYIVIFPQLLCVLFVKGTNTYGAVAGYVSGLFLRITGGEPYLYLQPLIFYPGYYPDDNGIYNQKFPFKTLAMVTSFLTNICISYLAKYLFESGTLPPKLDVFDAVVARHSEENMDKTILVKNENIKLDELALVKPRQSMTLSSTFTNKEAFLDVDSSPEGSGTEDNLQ

[2] = molecular target: T1, High affinity choline transporter 1; assay: human choline transporter blockers, potency – cell-based, 5-point CRC, membrane potential dye, dose response (AID 504840); assay type: functional
[3] = molecular target: T2, Sentrin-specific protease 8 (Homo sapiens, UniProt Q96LD8); assay: inhibition of human SENP8 cleavage activity – biochemical, luminescence, SAR follow-up (AID 504501); assay type: functional
T2 sequence (Q96LD8 whole entry): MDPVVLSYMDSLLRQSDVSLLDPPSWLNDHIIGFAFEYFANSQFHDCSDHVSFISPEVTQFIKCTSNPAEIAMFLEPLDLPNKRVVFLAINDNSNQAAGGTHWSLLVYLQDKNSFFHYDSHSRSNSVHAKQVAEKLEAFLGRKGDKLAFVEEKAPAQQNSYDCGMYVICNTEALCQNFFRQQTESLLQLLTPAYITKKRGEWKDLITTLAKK

[4] = molecular target: T3, Sentrin-specific protease 7 (Homo sapiens, UniProt Q9BQF6); assay: inhibition of human SENP7 cleavage activity – biochemical, luminescence, SAR follow-up (AID 504497); assay type: functional
T3 sequence (Q9BQF6 whole entry): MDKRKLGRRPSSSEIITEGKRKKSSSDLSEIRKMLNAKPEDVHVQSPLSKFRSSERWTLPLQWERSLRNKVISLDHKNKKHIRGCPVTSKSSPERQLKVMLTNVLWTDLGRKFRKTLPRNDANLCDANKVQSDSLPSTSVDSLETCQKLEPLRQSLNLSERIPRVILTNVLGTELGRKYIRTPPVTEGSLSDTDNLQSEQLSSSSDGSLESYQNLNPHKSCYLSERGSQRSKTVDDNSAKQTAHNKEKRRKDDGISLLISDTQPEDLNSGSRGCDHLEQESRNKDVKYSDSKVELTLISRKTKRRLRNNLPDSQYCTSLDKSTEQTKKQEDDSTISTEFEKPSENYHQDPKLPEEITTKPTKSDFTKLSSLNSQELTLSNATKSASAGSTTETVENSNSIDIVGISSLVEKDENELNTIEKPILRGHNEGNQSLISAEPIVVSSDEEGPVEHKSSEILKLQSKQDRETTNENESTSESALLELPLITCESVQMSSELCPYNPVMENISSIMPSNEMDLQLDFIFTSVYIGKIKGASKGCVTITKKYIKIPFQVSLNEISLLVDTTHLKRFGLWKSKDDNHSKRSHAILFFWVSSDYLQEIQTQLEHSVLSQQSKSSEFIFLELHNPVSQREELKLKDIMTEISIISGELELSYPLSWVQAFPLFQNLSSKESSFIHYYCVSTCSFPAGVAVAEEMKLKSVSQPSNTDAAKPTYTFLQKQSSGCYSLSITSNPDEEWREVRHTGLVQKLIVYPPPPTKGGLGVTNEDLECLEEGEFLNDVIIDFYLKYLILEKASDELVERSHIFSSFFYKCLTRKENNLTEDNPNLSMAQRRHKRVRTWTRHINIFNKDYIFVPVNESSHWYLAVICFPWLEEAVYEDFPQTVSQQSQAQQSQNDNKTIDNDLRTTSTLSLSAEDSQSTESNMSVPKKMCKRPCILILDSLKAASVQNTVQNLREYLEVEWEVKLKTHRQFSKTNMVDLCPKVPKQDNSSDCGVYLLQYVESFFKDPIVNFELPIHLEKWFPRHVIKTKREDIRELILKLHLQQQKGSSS

Caspase-3 = molecular target: T4, Caspase-3 (Homo sapiens, UniProt P42574); assay: SAR Analysis of small molecule inhibitors of Sentrin-specific proteases (SENPs) using a Caspase-3 Selectivity assay. [Related pubchem assays (depositor defined):AID2540, AID2599, AID434973, AID489001]; assay type: functional
T4 sequence (P42574 whole entry): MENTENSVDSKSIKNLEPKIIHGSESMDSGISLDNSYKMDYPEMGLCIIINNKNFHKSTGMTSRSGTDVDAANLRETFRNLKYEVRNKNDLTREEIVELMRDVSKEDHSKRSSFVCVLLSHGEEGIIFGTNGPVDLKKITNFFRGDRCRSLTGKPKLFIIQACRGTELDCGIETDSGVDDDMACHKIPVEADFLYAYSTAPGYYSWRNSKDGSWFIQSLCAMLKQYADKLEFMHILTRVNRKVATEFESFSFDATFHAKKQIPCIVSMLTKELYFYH

[5] = molecular target: T5, Sentrin-specific protease 6 (Homo sapiens, UniProt Q9GZR1); assay: SAR Analysis of small molecule inhibitors of Sentrin-specific protease 6 (SENP6) using a Luminescent assay. [Related pubchem assays (depositor defined):AID2582, AID2599]; assay type: functional
T5 sequence (Q9GZR1 whole entry): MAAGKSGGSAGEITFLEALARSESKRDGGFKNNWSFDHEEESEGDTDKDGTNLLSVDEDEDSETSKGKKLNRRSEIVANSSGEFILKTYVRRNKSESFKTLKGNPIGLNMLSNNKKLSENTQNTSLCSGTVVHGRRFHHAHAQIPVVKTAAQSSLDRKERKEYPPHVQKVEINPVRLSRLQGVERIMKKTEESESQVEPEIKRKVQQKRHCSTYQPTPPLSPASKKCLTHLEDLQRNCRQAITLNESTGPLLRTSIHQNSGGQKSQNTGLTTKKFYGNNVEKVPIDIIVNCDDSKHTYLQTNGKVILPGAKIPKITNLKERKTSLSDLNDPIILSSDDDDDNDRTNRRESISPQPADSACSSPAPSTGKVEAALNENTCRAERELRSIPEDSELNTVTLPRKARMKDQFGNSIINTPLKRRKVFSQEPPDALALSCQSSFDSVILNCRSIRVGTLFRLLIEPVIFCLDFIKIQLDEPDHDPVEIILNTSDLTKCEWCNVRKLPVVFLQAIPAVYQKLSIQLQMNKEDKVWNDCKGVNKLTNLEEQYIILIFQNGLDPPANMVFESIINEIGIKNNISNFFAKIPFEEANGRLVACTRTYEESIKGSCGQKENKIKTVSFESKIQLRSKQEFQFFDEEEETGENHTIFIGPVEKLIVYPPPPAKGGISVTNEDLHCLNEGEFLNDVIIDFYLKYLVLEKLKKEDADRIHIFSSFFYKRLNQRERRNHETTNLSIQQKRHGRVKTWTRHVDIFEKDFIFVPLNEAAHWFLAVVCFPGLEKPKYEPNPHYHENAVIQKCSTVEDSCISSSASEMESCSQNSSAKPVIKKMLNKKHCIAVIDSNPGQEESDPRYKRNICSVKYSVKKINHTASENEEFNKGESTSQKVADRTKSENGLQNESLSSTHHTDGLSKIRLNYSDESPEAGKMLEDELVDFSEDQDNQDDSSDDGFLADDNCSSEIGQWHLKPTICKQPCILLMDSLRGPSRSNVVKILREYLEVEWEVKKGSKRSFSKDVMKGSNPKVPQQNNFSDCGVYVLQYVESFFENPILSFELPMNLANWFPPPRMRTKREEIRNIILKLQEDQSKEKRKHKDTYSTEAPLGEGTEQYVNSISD

Melanocortin receptor 4 = Melanocortin receptor 4 (Homo sapiens, UniProt P32245); assay: inhibitors of MC4R cAMP signaling – cell-based, TR-FRET, biased antagonists, dose response (AID 602298); assay type: functional;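 also: antagonist potency against agonist-stimulated cAMP production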
[6] = cAMP pathway inhibition in counterscreen cell line – TR-FRET cAMP detection, counter-screen for MC4R biased antagonist project, dose response (AID 602305); assay type: functional, cell-based;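 also: U2OS cells stimulated with forskolin near its EC80 as the cAMP inducer; potency is for inhibition of forskolin-stimulated cAMP signaling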
[7] = molecular target: T6, Rac GTPase-activating protein 1 (Homo sapiens, UniProt Q9H0H5); assay: blockers of MgcRacGAP-driven Rac1 GTP hydrolysis – biochemical, ADP Hunter fluorescence, primary and confirmatory, confirmation (AID 624330); assay type: functional
T6 sequence (Q9H0H5 whole entry): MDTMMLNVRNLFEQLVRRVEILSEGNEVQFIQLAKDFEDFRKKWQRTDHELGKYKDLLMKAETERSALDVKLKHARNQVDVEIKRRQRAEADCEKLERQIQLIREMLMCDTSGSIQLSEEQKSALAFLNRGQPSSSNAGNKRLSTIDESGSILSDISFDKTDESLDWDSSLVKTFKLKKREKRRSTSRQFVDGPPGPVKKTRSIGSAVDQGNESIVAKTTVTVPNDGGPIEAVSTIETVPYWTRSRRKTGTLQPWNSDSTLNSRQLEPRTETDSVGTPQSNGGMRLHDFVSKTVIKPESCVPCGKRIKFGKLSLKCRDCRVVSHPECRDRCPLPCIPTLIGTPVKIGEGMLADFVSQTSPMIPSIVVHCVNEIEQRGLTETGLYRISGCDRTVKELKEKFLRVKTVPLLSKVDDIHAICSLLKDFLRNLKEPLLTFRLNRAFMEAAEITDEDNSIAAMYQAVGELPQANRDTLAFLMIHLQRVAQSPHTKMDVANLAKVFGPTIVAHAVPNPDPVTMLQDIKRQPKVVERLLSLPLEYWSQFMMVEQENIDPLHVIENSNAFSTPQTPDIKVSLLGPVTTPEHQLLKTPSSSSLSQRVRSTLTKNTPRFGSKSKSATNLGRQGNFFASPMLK

[8] = molecular target: T3, Sentrin-specific protease 7; assay: inhibition of human SENP7 cleavage activity – biochemical, luminescence, set 2, SAR follow-up (AID 588600); assay type: functional
[9] = molecular target: T5, Sentrin-specific protease 6; assay: inhibition of human SENP6 catalytic domain – biochemical, luminescence, set 2, SAR follow-up (AID 588598); assay type: functional
[10] = molecular target: T2, Sentrin-specific protease 8; assay: inhibition of sentrin protease 8 – biochemical, luminescence, set 2, SAR follow-up (AID 588601); assay type: functional

Sequence of Melanocortin receptor 4 (P32245 whole entry): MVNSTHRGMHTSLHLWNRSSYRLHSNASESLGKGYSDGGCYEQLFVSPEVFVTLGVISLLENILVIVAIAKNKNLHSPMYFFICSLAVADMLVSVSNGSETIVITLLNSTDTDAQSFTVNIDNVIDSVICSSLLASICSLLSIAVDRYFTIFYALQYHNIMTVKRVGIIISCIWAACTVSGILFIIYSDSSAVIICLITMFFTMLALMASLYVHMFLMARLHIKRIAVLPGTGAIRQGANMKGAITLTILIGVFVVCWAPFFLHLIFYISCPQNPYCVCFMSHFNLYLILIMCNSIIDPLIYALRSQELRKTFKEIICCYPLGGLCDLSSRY

| Compound | IC50 [1] | IC50 [2] | IC50 [4] | IC50 (Caspase-3) | IC50 [5] | IC50 [3] | other results |
| --- | --- | --- | --- | --- | --- | --- | --- |
| O=C(Nc1ccc(-c2noc(/C=C/c3ccccc3)n2)cc1)c1ccc(Br)o1 |  |  | > 99 µM (inactive) | > 99 µM (inactive) | > 99 µM (inactive) | > 99 µM (inactive) |  |
| CCOC(=O)c1sc(S)nc1C |  |  |  |  |  |  | IC50 (Melanocortin receptor 4): 18.2 µM (inactive); IC50 [6]: 44.7 µM (inactive); IC50 [7]: 50 µM (active) |
| CCCCc1ccc2nc(NC(=O)c3sccc3Cl)sc2c1 |  |  | 0.96 µM (active) | 1.1 µM (active) | 0.97 µM (active) | 0.99 µM (active) | IC50 [8]: 1.16 µM (active); IC50 [9]: 1.15 µM (active); IC50 [10]: 1.06 µM (active) |

Now from value to compound, other results behind:

| IC50 [1] | IC50 [2] | IC50 [4] | IC50 (Caspase-3) | IC50 [5] | Compound | IC50 [3] | other results |
| --- | --- | --- | --- | --- | --- | --- | --- |
| 11.2 µM (active) | 7.86 µM (active) |  |  |  | CCc1ccc(C(C)N=C(S)NC2CCCCC2)cc1 (stereo not drawn) |  |  |
| 6.21 µM (active) | 6.41 µM (active) |  |  |  | NC(=O)CC(NC(=O)c1ccccc1)c1ccc(N2CCCCCCC2)c([N+](=O)[O-])c1 (stereo not drawn) |  |  |
